In patent US5747490A, “Alpha 1b adrenergic receptor antagonists” (Merck & Co., Inc., priority 1996, dated 1998):

What was measured:
[1] = target: T1, human alpha 2c adrenergic receptor (Homo sapiens, UniProt P18825); test: Receptor binding, cloned human alpha 2c; conditions: for Ki: Table 1, cloned human receptors, read-out: alpha adrenergic receptor subtype binding, 2c
T1 construct: expressed in transfected cells; host or cells: cloned human receptor
T1 sequence (P18825 1-462): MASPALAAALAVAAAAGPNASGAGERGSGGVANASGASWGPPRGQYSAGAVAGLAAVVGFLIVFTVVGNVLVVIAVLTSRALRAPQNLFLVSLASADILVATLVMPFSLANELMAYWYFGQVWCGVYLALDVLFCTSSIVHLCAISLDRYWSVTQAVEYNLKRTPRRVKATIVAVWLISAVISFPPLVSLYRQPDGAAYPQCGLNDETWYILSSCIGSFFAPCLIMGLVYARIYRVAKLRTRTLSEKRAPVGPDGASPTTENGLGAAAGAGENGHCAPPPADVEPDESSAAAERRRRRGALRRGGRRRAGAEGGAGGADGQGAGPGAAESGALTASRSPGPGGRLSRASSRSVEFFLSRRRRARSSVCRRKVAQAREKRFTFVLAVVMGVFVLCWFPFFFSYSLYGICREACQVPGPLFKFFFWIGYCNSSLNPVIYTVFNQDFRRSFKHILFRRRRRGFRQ
Source text: (§1) This is accomplished according to methods known in the art using other receptors responsible for mediating diverse biological functions. [See e.g., PCT International Application Publication No. WO94/10989, published 26 May 1994; U.S. Pat. No. 5,403,847, issued Apr. 4, 1995, the contents of which are hereby incorporated by reference]. Compounds which are both selective amongst the various human alpha 1 adrenergic receptor subtypes and which have low affinity for other receptors, such as the alpha 2 adrenergic receptors, the β-adrenergic receptors, the muscarinic receptors, the serotonin receptors, and others are particularly preferred. The absence of these non-specific activities may be confirmed by using cloned and expressed receptors in an analogous fashion to the method disclosed herein for identifying compounds which have high affinity for the various human alpha 1 adrenergic receptors. Furthermore, functional biological tests are used to confirm the effects of identified compounds as alpha 1b adrenergic receptor antagonists.
(§2) Receptor binding data for representative compounds of the present invention in cloned human receptors is shown below in Table 1.

[2] = target: T2, human alpha 1a adrenergic receptor (Homo sapiens, UniProt P35348); test: Selective Binding assay, alpha 1a ([125I]-HEAT competition binding); conditions: Table 1, cloned human receptors; read-out: alpha adrenergic receptor subtype binding, 1a
T2 construct: host or cells: stably transfected human alpha 1a cell line (ATCC CRL 11140)
T2 sequence (P35348 1-466): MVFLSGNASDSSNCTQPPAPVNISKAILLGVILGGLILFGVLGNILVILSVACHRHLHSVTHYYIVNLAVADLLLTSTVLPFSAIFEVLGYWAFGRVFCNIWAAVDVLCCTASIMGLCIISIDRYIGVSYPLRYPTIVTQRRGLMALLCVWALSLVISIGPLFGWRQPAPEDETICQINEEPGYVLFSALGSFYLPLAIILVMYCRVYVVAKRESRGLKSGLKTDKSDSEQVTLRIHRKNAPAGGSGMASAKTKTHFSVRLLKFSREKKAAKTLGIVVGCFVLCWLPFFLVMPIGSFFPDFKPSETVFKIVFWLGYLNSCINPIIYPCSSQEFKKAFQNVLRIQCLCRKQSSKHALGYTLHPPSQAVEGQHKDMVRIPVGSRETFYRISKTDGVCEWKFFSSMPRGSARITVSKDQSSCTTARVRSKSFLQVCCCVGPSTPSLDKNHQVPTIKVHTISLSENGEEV
Method: (§3) These competition binding reactions (total volume=200 μl) contained 50 mM Tris-HCl pH 7.4, 5 mM EDTA, 150 mM NaCl, 100 pM [^125 I]-HEAT, membranes prepared from cell lines transfected with the respective alpha 1 subtype expression plasmid and increasing amounts of unlabeled ligand. Reactions were incubated at room temperature for one hour with shaking. Reactions were filtered onto Whatman GF/C glass fiber filters with a Inotec 96 well cell harvester. Filters were washed three times with ice cold buffer and bound radioactivity was determined (Ki).

[3] = target: T3, human alpha 2b adrenergic receptor (Homo sapiens, UniProt P18089); test: Receptor binding, cloned human alpha 2b; conditions: for Ki: Table 1, cloned human receptors, read-out: alpha adrenergic receptor subtype binding, 2b
T3 construct: expressed in transfected cells; host or cells: cloned human receptor
T3 sequence (P18089 1-450): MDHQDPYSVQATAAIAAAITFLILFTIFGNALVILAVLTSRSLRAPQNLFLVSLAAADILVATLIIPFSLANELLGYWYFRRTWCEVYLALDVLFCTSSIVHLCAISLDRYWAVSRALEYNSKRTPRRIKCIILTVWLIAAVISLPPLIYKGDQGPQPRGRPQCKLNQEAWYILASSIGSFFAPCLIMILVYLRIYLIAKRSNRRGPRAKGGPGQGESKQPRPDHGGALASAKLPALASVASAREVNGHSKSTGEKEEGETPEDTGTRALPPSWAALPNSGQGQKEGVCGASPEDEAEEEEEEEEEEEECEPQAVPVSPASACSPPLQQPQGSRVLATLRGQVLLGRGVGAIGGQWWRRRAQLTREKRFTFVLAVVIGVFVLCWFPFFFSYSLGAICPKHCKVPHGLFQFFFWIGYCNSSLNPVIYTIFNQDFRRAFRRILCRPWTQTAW
Source text: as §1, §2

[4] = target: T4, human alpha 1d adrenergic receptor (Homo sapiens, UniProt P25100); test: Selective Binding assay, alpha 1d ([125I]-HEAT competition binding); conditions: Table 1, cloned human receptors; read-out: alpha adrenergic receptor subtype binding, 1d
T4 construct: host or cells: stably transfected human alpha 1d cell line (ATCC CRL 11138)
T4 sequence (P25100 1-572): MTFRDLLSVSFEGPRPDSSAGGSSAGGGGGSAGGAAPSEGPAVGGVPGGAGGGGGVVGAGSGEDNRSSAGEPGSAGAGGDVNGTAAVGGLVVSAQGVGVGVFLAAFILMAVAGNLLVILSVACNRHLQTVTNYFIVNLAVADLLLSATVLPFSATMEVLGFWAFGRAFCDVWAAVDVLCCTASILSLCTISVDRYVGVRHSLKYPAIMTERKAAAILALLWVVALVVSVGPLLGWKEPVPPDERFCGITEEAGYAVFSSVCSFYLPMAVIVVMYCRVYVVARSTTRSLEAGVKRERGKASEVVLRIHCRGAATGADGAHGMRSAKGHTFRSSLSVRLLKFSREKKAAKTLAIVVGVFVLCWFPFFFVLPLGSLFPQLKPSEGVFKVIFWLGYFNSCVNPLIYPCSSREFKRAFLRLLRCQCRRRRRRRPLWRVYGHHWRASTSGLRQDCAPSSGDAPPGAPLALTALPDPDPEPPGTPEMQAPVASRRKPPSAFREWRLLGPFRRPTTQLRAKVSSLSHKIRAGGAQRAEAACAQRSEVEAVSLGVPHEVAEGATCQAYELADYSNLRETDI
Method: as §3

[5] = target: T5, human alpha 1b adrenergic receptor (Homo sapiens, UniProt P35368); test: Alpha 1b Adrenergic Receptor Binding ([125I]-HEAT competition binding); conditions: Table 1, cloned human receptors; read-out: alpha adrenergic receptor subtype binding, 1b
T5 construct: host or cells: stably transfected human alpha 1b cell line (ATCC CRL 11139)
T5 sequence (P35368 1-520): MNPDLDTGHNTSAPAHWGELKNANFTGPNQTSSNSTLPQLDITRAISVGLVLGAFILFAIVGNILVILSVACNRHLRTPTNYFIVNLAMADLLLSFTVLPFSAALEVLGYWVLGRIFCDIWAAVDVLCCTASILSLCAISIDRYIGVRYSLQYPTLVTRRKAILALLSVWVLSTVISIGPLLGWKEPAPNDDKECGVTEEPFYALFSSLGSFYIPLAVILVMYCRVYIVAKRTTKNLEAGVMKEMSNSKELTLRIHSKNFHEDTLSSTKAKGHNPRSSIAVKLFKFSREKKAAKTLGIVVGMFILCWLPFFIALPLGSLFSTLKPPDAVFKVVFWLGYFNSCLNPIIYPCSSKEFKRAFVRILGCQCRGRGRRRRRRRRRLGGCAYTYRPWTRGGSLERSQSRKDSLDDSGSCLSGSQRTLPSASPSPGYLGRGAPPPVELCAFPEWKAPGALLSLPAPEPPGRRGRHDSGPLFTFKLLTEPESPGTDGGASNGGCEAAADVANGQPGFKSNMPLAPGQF
Method: as §2
Screening assay: Alpha 1b Adrenergic Receptor Binding
as §3, with “Membranes prepared from the stably transfected human alpha 1b cell line (ATCC CRL 11139) were used to identify compounds that bind to the human alpha 1b adrenergic receptor. These” for “These”, “from the alpha 1b” for “from”, “line” for “lines transfected with the respective alpha 1 subtype expression plasmid”

[6] = target: T6, human alpha 2a adrenergic receptor (Homo sapiens, UniProt P08913); test: Receptor binding, cloned human alpha 2a; conditions: for Ki: Table 1, cloned human receptors, read-out: alpha adrenergic receptor subtype binding, 2a
T6 construct: expressed in transfected cells; host or cells: cloned human receptor
T6 sequence (P08913 1-465): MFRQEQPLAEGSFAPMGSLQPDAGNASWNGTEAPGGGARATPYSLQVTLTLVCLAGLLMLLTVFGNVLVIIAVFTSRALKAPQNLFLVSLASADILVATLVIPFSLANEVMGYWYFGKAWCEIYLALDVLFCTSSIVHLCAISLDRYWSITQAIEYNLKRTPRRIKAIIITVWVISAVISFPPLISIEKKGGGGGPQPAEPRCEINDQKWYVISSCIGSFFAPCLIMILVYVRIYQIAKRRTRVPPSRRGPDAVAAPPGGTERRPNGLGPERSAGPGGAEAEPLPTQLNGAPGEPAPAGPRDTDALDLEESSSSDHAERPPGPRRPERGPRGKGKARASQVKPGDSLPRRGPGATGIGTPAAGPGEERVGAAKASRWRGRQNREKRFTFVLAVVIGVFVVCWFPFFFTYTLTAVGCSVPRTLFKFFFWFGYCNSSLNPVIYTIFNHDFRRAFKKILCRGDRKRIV
Source text: as §1, §2

SMILES	Ki [1] [nM]	Ki [2] [nM]	Ki [3] [nM]	Ki [4] [nM]	Ki [5] [nM]	Ki [6] [nM]	inhibition at 1 µM ([1]; read-out: alpha adrenergic receptor subtype binding, 2c, % @ 1 uM) [%]	inhibition at 10 µM ([1]; read-out: alpha adrenergic receptor subtype binding, 2c, % @ 10 uM) [%]	inhibition at 1 µM ([3]; read-out: alpha adrenergic receptor subtype binding, 2b, % @ 1 uM) [%]	inhibition at 10 µM ([3]; read-out: alpha adrenergic receptor subtype binding, 2b, % @ 10 uM) [%]	inhibition at 1 µM ([6]; read-out: alpha adrenergic receptor subtype binding, 2a, % @ 1 uM) [%]	inhibition at 10 µM ([6]; read-out: alpha adrenergic receptor subtype binding, 2a, % @ 10 uM) [%]
COc1cc2nc(N3CCN(C(=O)OCc4ccccc4)[C@H](C(=O)NC(C)(C)C)C3)nc(N)c2cc1OC [Compound 2a, (S)-1-(4-Amino-6,7-dimethoxy-2-quinazolinyl)-4-[(benzyloxy)carbonyl]-3-(1,1-dimethylethylamino)carbonyl piperazine]	715	463	> 10000	29	1	683						
COc1cc2nc(N3CCN[C@H](C(=O)NC(C)(C)C)C3)nc(N)c2cc1OC [Compound 3a, (S)-1-(4-Amino-6,7-dimethoxy-2-quinazolinyl)-3-(1,1-dimethylethylamino)carbonyl piperazine]	736	1190	> 10000	111	2.7	1170						
COc1cc2nc(N3CCN(C(=O)c4ccco4)[C@H](C(=O)NC(C)(C)C)C3)nc(N)c2cc1OC [Compound 4a]		> 3670		97	3.4		42	71	16	23	23	65
